According to ChEMBL document CHEMBL5335767, “Synthesis and study of new siderophore analog-ciprofloxacin conjugates with antibiotic activities against Pseudomonas aeruginosa and Burkholderia spp” (Eur J Med Chem, 2023):
Converted amounts (≈) assume the structure as drawn.

Assays:
Pseudomonas aeruginosa [1] = assay: Antibacterial activity against Pseudomonas aeruginosa PAO1 under muller hinton medium by CLSI protocol based microdilution method; type: functional
Pseudomonas aeruginosa [2] = assay: Antibacterial activity against Pseudomonas aeruginosa PAO1 under succinate minimum medium by CLSI protocol based microdilution method; type: functional
Pseudomonas aeruginosa [3] = assay: Antibacterial activity against Pseudomonas aeruginosa PAO1 under 1 uM FeCl3 medium by CLSI protocol based microdilution method; type: functional
Pseudomonas aeruginosa [4] = assay: Antibacterial activity against Pseudomonas aeruginosa PAD07 under muller hinton medium by CLSI protocol based microdilution method; type: functional
Pseudomonas aeruginosa [5] = assay: Antibacterial activity against Pseudomonas aeruginosa PAD07 under succinate minimum medium by CLSI protocol based microdilution method; type: functional
Pseudomonas aeruginosa [6] = assay: Antibacterial activity against Pseudomonas aeruginosa PAD07 under 1 uM FeCl3 medium by CLSI protocol based microdilution method; type: functional
Pseudomonas aeruginosa [7] = assay: Antibacterial activity against Pseudomonas aeruginosa AM85 under muller hinton medium by CLSI protocol based microdilution method; type: functional
Pseudomonas aeruginosa [8] = assay: Antibacterial activity against Pseudomonas aeruginosa AM85 under succinate minimum medium by CLSI protocol based microdilution method; type: functional
Pseudomonas aeruginosa [9] = assay: Antibacterial activity against Pseudomonas aeruginosa AM85 under 1 uM FeCl3 medium by CLSI protocol based microdilution method; type: functional
[10] = tested on: Burkholderia pseudomallei; assay: Antibacterial activity against Burkholderia pseudomallei BPS2020IRBA001 under muller hinton medium by CLSI protocol based microdilution method; type: functional
[11] = tested on: Burkholderia pseudomallei; assay: Antibacterial activity against Burkholderia pseudomallei BPS2020IRBA001 under succinate minimum medium by CLSI protocol based microdilution method; type: functional
[12] = tested on: Burkholderia pseudomallei; assay: Antibacterial activity against Burkholderia pseudomallei BPS2020IRBA001 under 1 uM FeCl3 medium by CLSI protocol based microdilution method; type: functional
[13] = tested on: Burkholderia pseudomallei; assay: Antibacterial activity against Burkholderia pseudomallei BPS2020IRBA002 under muller hinton medium by CLSI protocol based microdilution method; type: functional
[14] = tested on: Burkholderia pseudomallei; assay: Antibacterial activity against Burkholderia pseudomallei BPS2020IRBA002 under 1 uM FeCl3 medium by CLSI protocol based microdilution method; type: functional
[15] = tested on: Burkholderia pseudomallei; assay: Antibacterial activity against Burkholderia pseudomallei K96243 under muller hinton medium by CLSI protocol based microdilution method; type: functional
[16] = tested on: Burkholderia pseudomallei; assay: Antibacterial activity against Burkholderia pseudomallei K96243 under 1 uM FeCl3 medium by CLSI protocol based microdilution method; type: functional
[17] = tested on: Burkholderia pseudomallei; assay: Antibacterial activity against Burkholderia pseudomallei BPS2020IRBA003 under muller hinton medium by CLSI protocol based microdilution method; type: functional
[18] = tested on: Burkholderia pseudomallei; assay: Antibacterial activity against Burkholderia pseudomallei BPS2020IRBA003 under succinate minimum medium by CLSI protocol based microdilution method; type: functional
[19] = tested on: Burkholderia pseudomallei; assay: Antibacterial activity against Burkholderia pseudomallei BPS2020IRBA003 under 1 uM FeCl3 medium by CLSI protocol based microdilution method; type: functional
[20] = tested on: Burkholderia pseudomallei; assay: Antibacterial activity against Burkholderia pseudomallei BPS2020IRBA004 under muller hinton medium by CLSI protocol based microdilution method; type: functional
[21] = tested on: Burkholderia pseudomallei; assay: Antibacterial activity against Burkholderia pseudomallei BPS2020IRBA005 under muller hinton medium by CLSI protocol based microdilution method; type: functional
[22] = tested on: Burkholderia thailandensis; assay: Antibacterial activity against Burkholderia thailandensis E264 under muller hinton medium by CLSI protocol based microdilution method; type: functional
[23] = tested on: Burkholderia thailandensis; assay: Antibacterial activity against Burkholderia thailandensis E264 under succinate minimum medium by CLSI protocol based microdilution method; type: functional
[24] = tested on: Burkholderia thailandensis; assay: Antibacterial activity against Burkholderia thailandensis E264 under 1 uM FeCl3 medium by CLSI protocol based microdilution method; type: functional
[25] = tested on: Burkholderia thailandensis; assay: Antibacterial activity against Burkholderia thailandensis E264TS32C10 under muller hinton medium by CLSI protocol based microdilution method; type: functional
[26] = tested on: Burkholderia thailandensis; assay: Antibacterial activity against Burkholderia thailandensis E264TS32C10 under 1 uM FeCl3 medium by CLSI protocol based microdilution method; type: functional
[27] = tested on: Burkholderia thailandensis; assay: Antibacterial activity against Burkholderia thailandensis E264TS32C12 under muller hinton medium by CLSI protocol based microdilution method; type: functional
[28] = tested on: Burkholderia thailandensis; assay: Antibacterial activity against Burkholderia thailandensis E264TS32C12 under succinate minimum medium by CLSI protocol based microdilution method; type: functional
[29] = tested on: Burkholderia thailandensis; assay: Antibacterial activity against Burkholderia thailandensis E264TS32C12 under 1 uM FeCl3 medium by CLSI protocol based microdilution method; type: functional
[30] = tested on: Burkholderia thailandensis; assay: Antibacterial activity against Burkholderia thailandensis E264TS32C47 under muller hinton medium by CLSI protocol based microdilution method; type: functional
[31] = tested on: Burkholderia thailandensis; assay: Antibacterial activity against Burkholderia thailandensis E264TS32C47 under succinate minimum medium by CLSI protocol based microdilution method; type: functional
[32] = tested on: Burkholderia thailandensis; assay: Antibacterial activity against Burkholderia thailandensis E264TS32C47 under 1 uM FeCl3 medium by CLSI protocol based microdilution method; type: functional
[33] = tested on: Burkholderia pseudomallei; assay: Antibacterial activity against Burkholderia pseudomallei BPS2020IRBA002 under succinate minimum medium after 48 hrs by CLSI protocol based microdilution method; type: functional
[34] = tested on: Burkholderia pseudomallei; assay: Antibacterial activity against Burkholderia pseudomallei K96243 under succinate minimum medium after 48 hrs by CLSI protocol based microdilution method; type: functional
[35] = tested on: Burkholderia pseudomallei; assay: Antibacterial activity against Burkholderia pseudomallei BPS2020IRBA005 under succinate minimum medium after 48 hrs by CLSI protocol based microdilution method; type: functional
[36] = tested on: Burkholderia pseudomallei; assay: Antibacterial activity against Burkholderia pseudomallei BPS2020IRBA005 under 1 uM FeCl3 medium after 48 hrs by CLSI protocol based microdilution method; type: functional
[37] = tested on: Burkholderia thailandensis; assay: Antibacterial activity against Burkholderia thailandensis E264TS32C10 under succinate minimum medium after 48 hrs by CLSI protocol based microdilution method; type: functional
HepG2 = assay: Cytotoxicity against human HepG2 cells at 28 ug/ml after 48 hrs by CellTiter-Glo luminescent cell viability assay; type: toxicity, cell-based; details: hepg2, 48 h, dose 28 µg/ml
Lipid bilayer = assay: Binding affinity to bacterial inner membrane mimic PE/PG/CL/PC (60:20:10:10) assessed as maximum insertion pressure
Lipopolysaccharide (LPS) = assay: Binding affinity to Pseudomonas aeruginosa lipopolysaccharide assessed as maximum insertion pressure
[38] = Stability in aqueous solution after 1 months; type: physicochemical; details: buffer, 730 h

Work on `CC(OC(=O)c1cccc(O)c1O)OC(=O)N1CCN(c2cc3c(cc2F)c(=O)c(C(=O)O)cn3C2CC2)CC1` (stereo unspecified) yielded an MIC (Pseudomonas aeruginosa [1]) of 1 µg/mL (≈ 1.8 µM), an MIC (Pseudomonas aeruginosa [2]) of 1 µg/mL (≈ 1.8 µM) and an MIC (Pseudomonas aeruginosa [3]) of 1 µg/mL (≈ 1.8 µM). It also gave an MIC (Pseudomonas aeruginosa [4]) of 0.25 µg/mL (≈ 0.45 µM), an MIC (Pseudomonas aeruginosa [5]) of 0.25 µg/mL (≈ 0.45 µM) and an MIC (Pseudomonas aeruginosa [6]) of 2 µg/mL (≈ 3.6 µM). It also gave an MIC (Pseudomonas aeruginosa [7]) greater than 128 µg/mL, an MIC (Pseudomonas aeruginosa [8]) greater than 128 µg/mL and an MIC (Pseudomonas aeruginosa [9]) greater than 128 µg/mL. It also gave an MIC [10] of 128 µg/mL (≈ 230 µM), an MIC [11] of 2 µg/mL (≈ 3.6 µM) and an MIC [12] of 32 µg/mL (≈ 57.6 µM). The MIC [13] was 32 µg/mL (≈ 57.6 µM), the MIC [14] was 8 µg/mL (≈ 14.4 µM) and the MIC [15] was 8 µg/mL (≈ 14.4 µM). It also gave an MIC [16] of 4 µg/mL (≈ 7.2 µM), an MIC [17] of 32 µg/mL (≈ 57.6 µM) and an MIC [18] of 8 µg/mL (≈ 14.4 µM). It also gave an MIC [19] of 16 µg/mL (≈ 28.8 µM), an MIC [20] of 32 µg/mL (≈ 57.6 µM) and an MIC [21] of 128 µg/mL (≈ 230 µM). The MIC [22] was 32 µg/mL (≈ 57.6 µM), the MIC [23] was 8 µg/mL (≈ 14.4 µM) and the MIC [24] was 8 µg/mL (≈ 14.4 µM). It also gave an MIC [25] greater than 128 µg/mL, an MIC [26] of 32 µg/mL (≈ 57.6 µM) and an MIC [27] of 64 µg/mL (≈ 115 µM). The MIC [28] was 4 µg/mL (≈ 7.2 µM), the MIC [29] was 16 µg/mL (≈ 28.8 µM) and the MIC [30] was 32 µg/mL (≈ 57.6 µM). The MIC [31] was 4 µg/mL (≈ 7.2 µM), the MIC [32] was 8 µg/mL (≈ 14.4 µM) and the MIC [33] was 8 µg/mL (≈ 14.4 µM). It also gave an MIC [34] of 2 µg/mL (≈ 3.6 µM), an MIC [35] of 8 µg/mL (≈ 14.4 µM) and an MIC [36] of 16 µg/mL (≈ 28.8 µM). The MIC [37] was 32 µg/mL (≈ 57.6 µM), the Activity (HepG2) was “Non-Toxic” and the Activity (Lipid bilayer) was 44 mN/meter. For the same molecule, the Activity (Lipopolysaccharide (LPS)) was 30 mN/meter and the Stability [38] was “Stable”.
